Reference: PubChem BioAssay AID248 (DTP/NCI, 2004)
Toxic doses and inconclusive results are not listed. Rule as the data show it: active = T/C of 150% or more; inactive = T/C below 125%.

System: L1210 leukemia ip in BDF1 mice, survival T/C
Assay: NCI In Vivo Anticancer Drug Screen. Data for tumor model L1210 Leukemia (intraperitoneal) in B6D2F1 (BDF1) mice
Settings: endpoint: mean survival time, higher = longer survival
How it was run: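 Value reflects the ratio of survival in compound-treated mice to survival in vehicle-treated controls, with both groups carrying the same transplanted tumor.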

[1] = dose: 12.5 mg/kg/injection, schedule: Q01DX009 (ip), vehicle: saline with Tween-80
[2] = dose: 25.0 mg/kg/injection, schedule: Q01DX009 (ip), vehicle: saline with Tween-80
[3] = dose: 50.0 mg/kg/injection, schedule: Q01DX009 (ip), vehicle: saline with Tween-80
[4] = dose: 50.0 mg/kg/injection, schedule: Q04DX003 (ip), vehicle: saline with Tween-80
[5] = dose: 200.0 mg/kg/injection, schedule: Q04DX003 (ip), vehicle: saline with Tween-80
[6] = dose: 400.0 mg/kg/injection, schedule: Q04DX003 (ip), vehicle: saline with Tween-80
[7] = dose: 100.0 mg/kg/injection, schedule: Q01DX001 (ip), vehicle: saline
[8] = dose: 200.0 mg/kg/injection, schedule: Q01DX001 (ip), vehicle: saline
[9] = dose: 400.0 mg/kg/injection, schedule: Q01DX001 (ip), vehicle: saline
[10] = dose: 100.0 mg/kg/injection, schedule: Q04DX003 (ip), vehicle: saline
[11] = dose: 200.0 mg/kg/injection, schedule: Q04DX003 (ip), vehicle: saline
[12] = dose: 400.0 mg/kg/injection, schedule: Q04DX003 (ip), vehicle: saline
[13] = dose: 100.0 mg/kg/injection, schedule: Q04DX003 (ip), vehicle: saline with Tween-80
[14] = dose: 100.0 mg/kg/injection, schedule: Q01DX001 (ip), vehicle: carboxymethylcellulose (CMC)
[15] = dose: 200.0 mg/kg/injection, schedule: Q01DX001 (ip), vehicle: carboxymethylcellulose (CMC)

Measured: T/C

CC(=O)NC1C(OC(C)=O)OC(COC(c2ccccc2)(c2ccccc2)c2ccccc2)C(O)C1OC(C)=O (stereo unspecified)
inactive: dose: 6.25 mg/kg/injection, schedule: Q01DX009 (ip), vehicle: saline with Tween-80 96 % of control | [1] 93 % of control | [2] 93 % of control | dose: 25.0 mg/kg/injection, schedule: Q04DX003 (ip), vehicle: saline with Tween-80 109 % of control | [3] 93 % of control | [4] 121 % of control | [5] 91 % of control | [6] 88 % of control

CC(=O)Oc1cc(-c2ccccc2)c2oc(C)nc2c1-c1ccccc1
inactive: dose: 100.0 mg/kg/injection, schedule: Q04DX003 (ip), vehicle: Klucel (hydroxypropylcellulose) (HPC) 101 % of control | dose: 200.0 mg/kg/injection, schedule: Q04DX003 (ip), vehicle: Klucel (hydroxypropylcellulose) (HPC) 103 % of control | dose: 400.0 mg/kg/injection, schedule: Q04DX003 (ip), vehicle: Klucel (hydroxypropylcellulose) (HPC) 93 % of control

CCCCCCCCCCCCCCCCCCNC(=S)N/N=C/c1ccccc1[N+](=O)[O-]
inactive: dose: 111.0 mg/kg/injection, schedule: Q01DX Z (ip), vehicle: methylcellulose (MC) 90 % of control | dose: 166.0 mg/kg/injection, schedule: Q01DX Z (ip), vehicle: methylcellulose (MC) 86 % of control

Cc1n(-c2ccccc2)c2ccccc2[n+]1[O-]
inactive: [7] 101 % of control | [8] 101 % of control | [9] 101 % of control

COC1OC2COC(c3ccccc3)OC2C(OC)C1OC(=O)c1ccccc1 (stereo unspecified)
inactive: [10] 93 % of control | [11] 91 % of control | [12] 98 % of control

O=C(O)/C=C/C(=O)Nc1ccc2c(c1)C(NC(=O)/C=C/C(=O)O)c1ccccc1-2 (stereo unspecified)
inactive: [7] 93 % of control | [10] 100 % of control | [8] 97 % of control | [11] 96 % of control | [9] 88 % of control | [12] 92 % of control

O=S(=O)(/N=C1/c2ccccc2/C(=N/S(=O)(=O)c2ccccc2)C2CC=CCC12)c1ccccc1 (stereo unspecified)
inactive: dose: 25.0 mg/kg/injection, schedule: Q01DX001 (ip), vehicle: saline sonified 94 % of control | dose: 50.0 mg/kg/injection, schedule: Q01DX001 (ip), vehicle: saline sonified 95 % of control | dose: 100.0 mg/kg/injection, schedule: Q01DX001 (ip), vehicle: saline sonified 92 % of control

CCCCS.[Pb]
inactive: [13] 95 % of control | [5] 95 % of control | [6] 96 % of control

COc1ccc(C)cc1NC(=O)/C=C/c1ccccc1
inactive: dose: 100.0 mg/kg/injection, schedule: Q04DX002 (ip), vehicle: Klucel (hydroxypropylcellulose) (HPC) 100 % of control | dose: 200.0 mg/kg/injection, schedule: Q04DX002 (ip), vehicle: Klucel (hydroxypropylcellulose) (HPC) 100 % of control | dose: 400.0 mg/kg/injection, schedule: Q04DX002 (ip), vehicle: Klucel (hydroxypropylcellulose) (HPC) 100 % of control

CC(OC(=O)Nc1ccccc1)C(=O)O (stereo unspecified)
inactive: dose: 100.0 mg/kg/injection, schedule: Q01DX009 (ip), vehicle: saline with Tween-80 92 % of control | [13] 96 % of control | dose: 200.0 mg/kg/injection, schedule: Q01DX009 (ip), vehicle: saline with Tween-80 92 % of control | [5] 101 % of control | dose: 400.0 mg/kg/injection, schedule: Q01DX009 (ip), vehicle: saline with Tween-80 95 % of control | [6] 96 % of control

N#CCc1ccc(-c2ccccc2)cc1
inactive: [1] 103 % of control | [2] 95 % of control | [3] 94 % of control | [4] 97 % of control | [14] 100 % of control | [13] 93 % of control | [15] 100 % of control | dose: 400.0 mg/kg/injection, schedule: Q01DX001 (ip), vehicle: carboxymethylcellulose (CMC) 93 % of control

CCCCCCCCCCCCCCCC1=C(O)c2ccccc2C(=O)C1=O
inactive: [7] 112 % of control | [8] 101 % of control | [9] 103 % of control

CC1(C)N=C(N)N=C(N)N1c1cccc(OCCOc2cccc([N+](=O)[O-])c2)c1
inactive: dose: 5.0 mg/kg/injection, schedule: Q01DX001 (ip), vehicle: saline 105 % of control | dose: 10.0 mg/kg/injection, schedule: Q01DX001 (ip), vehicle: saline 102 % of control | dose: 20.0 mg/kg/injection, schedule: Q01DX001 (ip), vehicle: saline 103 % of control | dose: 40.0 mg/kg/injection, schedule: Q01DX001 (ip), vehicle: saline 100 % of control | dose: 80.0 mg/kg/injection, schedule: Q01DX001 (ip), vehicle: saline 100 % of control

CCCC(=O)Nc1ccc(NS(C)(=O)=O)cc1OC
inactive: dose: 100.0 mg/kg/injection, schedule: Q01DX009 (ip), vehicle: saline 103 % of control | [10] 102 % of control | dose: 200.0 mg/kg/injection, schedule: Q01DX009 (ip), vehicle: saline 100 % of control | [11] 102 % of control | dose: 400.0 mg/kg/injection, schedule: Q01DX009 (ip), vehicle: saline 102 % of control | [12] 100 % of control

CCOC(=O)/C(C(=S)NC(=O)c1ccc(Br)cc1)=C(/C)N
inactive: dose: 100.0 mg/kg/injection, schedule: Q04DX003 (ip), vehicle: carboxymethylcellulose (CMC) 95 % of control | dose: 200.0 mg/kg/injection, schedule: Q04DX003 (ip), vehicle: carboxymethylcellulose (CMC) 90 % of control | dose: 400.0 mg/kg/injection, schedule: Q04DX003 (ip), vehicle: carboxymethylcellulose (CMC) 98 % of control

COc1ccc(NC(=S)NC2CCCCC2)cc1
inactive: dose: 100.0 mg/kg/injection, schedule: Q04DX003 (ip), vehicle: other 94 % of control | dose: 200.0 mg/kg/injection, schedule: Q04DX003 (ip), vehicle: other 88 % of control | dose: 400.0 mg/kg/injection, schedule: Q04DX003 (ip), vehicle: other 90 % of control

CCOC(=O)c1sc2cc[nH]c2c1O
inactive: dose: 50.0 mg/kg/injection, schedule: Q01DX001 (ip), vehicle: Klucel (hydroxypropylcellulose) (HPC) 102 % of control | dose: 100.0 mg/kg/injection, schedule: Q01DX001 (ip), vehicle: Klucel (hydroxypropylcellulose) (HPC) 100 % of control | dose: 200.0 mg/kg/injection, schedule: Q01DX001 (ip), vehicle: Klucel (hydroxypropylcellulose) (HPC) 94 % of control

[Br][Sn]([Br])([c]1cccc2ccccc12)[c]1cccc2ccccc12
inactive: dose: 100.0 mg/kg/injection, schedule: Q01DX001 (ip), vehicle: saline with Tween-80 102 % of control | dose: 200.0 mg/kg/injection, schedule: Q01DX001 (ip), vehicle: saline with Tween-80 93 % of control | dose: 400.0 mg/kg/injection, schedule: Q01DX001 (ip), vehicle: saline with Tween-80 93 % of control

CCCc1cc(=O)c2ccccc2n1COC(C)=O
inactive: dose: 50.0 mg/kg/injection, schedule: Q01DX001 (ip), vehicle: carboxymethylcellulose (CMC) 119 % of control | [14] 113 % of control | [15] 113 % of control

CCC1(O)C(=O)OCc2c1ccn(C)c2=O (stereo unspecified)
inactive: dose: 18.7 mg/kg/injection, schedule: Q01DX001 (ip), vehicle: saline 113 % of control | dose: 37.5 mg/kg/injection, schedule: Q01DX001 (ip), vehicle: saline 105 % of control | dose: 75.0 mg/kg/injection, schedule: Q01DX001 (ip), vehicle: saline 102 % of control | dose: 150.0 mg/kg/injection, schedule: Q01DX001 (ip), vehicle: saline 102 % of control
